Data taken from US9375434B2, “Antitumor effect potentiator composed of imidazooxazine compound” (Taiho Pharmaceutical Co., Ltd., priority 2012, dated 2016).

Assays:
[1] = test system: Human stomach cancer cell line (NCI-N87); assay: Potentiation of antitumor effect of lapatinib, NCI-N87 subcutaneous implant in nude mice (Test Example 4); assay type: in vivo, BALB/cA Jcl-nu/nu mice; conditions: lapatinib 100 mg/kg/day p.o. day 1-14 (q.d.)
Protocol: In the figure, the asterisk represents a result having a statistically significant difference compared with the single-drug administration group. FIG. 1 and Table 10 show the results. […] Lapatinib was prepared by adjusting its dose to 100 mg/kg/day. Further, the test liquid of Compound-I was prepared by adjusting its dose to 16 mg/kg/day. […] The effect of the combined administration was also statistically determined in the same manner as in Test Example 1. In the figure and the table, the asterisk represents a result having a statistically significant difference compared with the single-drug administration group. FIG. 7 and Table 13 show the results.

[2] = test system: Human ovarian cancer A2780 cell line; assay: Potentiation of antitumor effect of paclitaxel, A2780 subcutaneous implant in nude mice (Test Example 1); assay type: in vivo, BALB/cA Jcl-nu/nu mice; conditions: paclitaxel 60 mg/kg/day i.v. day 1, 8
Protocol: Human ovarian cancer A2780 cell line was subcutaneously implanted into the right flank of 7-week-old male BALB/cA Jcl-nu/nu mice. After the implant, the length (mm) and the width (mm) of the tumor were measured, and the tumor volume (TV) was calculated. Thereafter, the mice were divided into groups so that the average TV is equalized in each group. The day of grouping (n=5) is referred to as Day 0. […] Test liquids for the groups receiving only Compound-I were prepared by diluting Compound-I with 0.5% hydroxypropyl methylcellulose (HPMC) so as to enable administration at a Compound-I dose of 8 mg/kg/day, 16 mg/kg/day, and 24 mg/kg/day. […] In the groups receiving the two drugs, Compound-I was administered at doses of 8 mg/kg/day, 16 mg/kg/day, and 24 mg/kg/day, and paclitaxel was administered at a dose of 60 mg/kg/day. […] In the figure, the asterisk represents a result having a statistically significant difference compared with the single-drug administration group. FIG. 1 and Table 10 show the results.

[3] = test system: Human stomach cancer cell line (NCI-N87); assay: Potentiation of antitumor effect of paclitaxel, NCI-N87 subcutaneous implant in nude mice (Test Example 2); assay type: in vivo, BALB/cA Jcl-nu/nu mice; conditions: paclitaxel 60 mg/kg/day i.v. day 1, 8
Protocol: In the figure, the asterisk represents a result having a statistically significant difference compared with the single-drug administration group. FIG. 1 and Table 10 show the results. […] Ltd.) was prepared to enable administration at a paclitaxel dose of 60 mg/kg/day. Further, test liquids for the groups receiving only Compound-I were prepared to enable administration at Compound-I doses of 8 mg/kg/day, 16 mg/kg/day, and 24 mg/kg/day. […] In the groups receiving the two drugs, Compound-I was administered at doses of 8 mg/kg/day, 16 mg/kg/day, and 24 mg/kg/day, and paclitaxel was administered at a dose of 60 mg/kg/day. The evaluation was performed in the same manner as in Test Example 1. The effect of the combined administration was also statistically determined in the same manner as in Test Example 1. In the figure and the table, the asterisk represents a result having a statistically significant difference compared with the single-drug administration group. FIG. 3 and Table 11 show the results.

[4] = test system: Human ovarian cancer cell line (A2780); assay: Potentiation of antitumor effect of carboplatin, A2780 subcutaneous implant (Test Example 3); assay type: in vivo, nude rats; conditions: carboplatin 50 mg/kg/day i.v. day 1, 8
Protocol: In the figure, the asterisk represents a result having a statistically significant difference compared with the single-drug administration group. FIG. 1 and Table 10 show the results. […] Carboplatin was prepared by diluting a […] injection (Bristol-Myers Squibb, 50 mg/5 mL) two-fold with physiological saline to enable administration at a carboplatin dose of 50 mg/kg/day. Further, the test liquid of Compound-I was prepared by adjusting its dose to 16 mg/kg/day. […] The single-drug administration group was administered 0.5% HPMC or a physiological saline as a vehicle instead of Compound-I or carboplatin. […] FIG. 5 and Table 12 show the results. […] The effect of the combined administration was also statistically determined in the same manner as in Test Example 1. In the figure and the table, the asterisk represents a result having a statistically significant difference compared with the single-drug administration group.

[5] = test system: Human ovarian cancer cell line (A2780); assay: Potentiation of antitumor effect of doxorubicin, A2780 subcutaneous implant in nude mice (Test Example 6); assay type: in vivo, BALB/cA Jcl-nu/nu mice; conditions: doxorubicin 7 mg/kg/day day 1, 8
Protocol: In the groups receiving only Compound-I, the test liquid was prepared by diluting Compound-I with 0.5% HPMC to enable administration at a Compound-I dose of 16 mg/kg/day. […] The effect of the combined administration was also statistically determined in the same manner as in Test Example 1.

[6] = test system: Human ovarian cancer cell line (A2780); assay: Potentiation of antitumor effect of irinotecan, A2780 subcutaneous implant in nude mice (Test Example 5); assay type: in vivo, BALB/cA Jcl-nu/nu mice; conditions: irinotecan 75 mg/kg/day day 1, 8; route printed p.o.
Protocol: As an index of antitumor effect, the TV at Day 15 was measured for each of the drug administration groups, and the relative tumor volume (RTV) relative to Day 1 and T/C (%) were calculated by the following formulas to evaluate the antitumor effect.
TV (mm^3)=(length×width^2)/2 RTV=(TV at Day 15)/(TV at Day 1) T/C(%)=(average RTV value of the test liquid administration group)/(average RTV value of the control group)×100
Human ovarian cancer cell line (A2780) was subcutaneously implanted into the right flank of 7-week-old male BALB/cA Jcl-nu/nu mice, and was used in the same manner as in Test Example 1. […] Further, the test liquid of Compound-I was prepared by adjusting its dose to 16 mg/kg/day.
The effect of the combined administration was also statistically determined in the same manner as in Test Example 1. […] FIG. 9 and Table 14 show the results. Further, the change in the body weight over time was evaluated as an index of toxicity in the same manner as in Test Example 1.

[7] = test system: Human stomach cancer cell line (NCI-N87); assay: Potentiation of antitumor effect of everolimus, NCI-N87 subcutaneous implant in nude mice (Test Example 7); assay type: in vivo, BALB/cA Jcl-nu/nu mice; conditions: everolimus 5 mg/kg/day p.o. day 1-14
Protocol: As an index of antitumor effect, the TV at Day 15 was measured for each of the drug administration groups, and the relative tumor volume (RTV) relative to Day 1 and T/C (%) were calculated by the following formulas to evaluate the antitumor effect. […] In the figure, the asterisk represents a result having a statistically significant difference compared with the single-drug administration group.
FIG. 1 and Table 10 show the results. TV (mm^3)=(length×width^2)/2 RTV=(TV at Day 15)/(TV at Day 1) T/C(%)=(average RTV value of the test liquid administration group)/(average RTV value of the control group)×100
Human stomach cancer cell line (NCI-N87) was subcutaneously implanted into the right flank of 7-week-old male BALB/cA Jcl-nu/nu mice, and was used in the same manner as in Test Example 1.
In the group receiving only everolimus (IS Chemical Technology), the test liquid was prepared to enable administration at an everolimus dose of 5 mg/kg/day. A vehicle of 5% ethyl alcohol/5% PEG400/4% Tween 20/86% distilled water was used. In the groups receiving only Compound-I, the test liquid was prepared by diluting Compound-I with 0.5% HPMC to enable administration at a Compound-I dose of 16 mg/kg/day. In the combined administration group, Compound-I was administered at a dose of 16 mg/kg/day, and everolimus was administered at a dose of 5 mg/kg/day. Both Compound-I and everolimus were orally administered once a day for 14 days from Day 1, and the evaluation was performed in the same manner as in Test Example 1. FIG. 13 and Table 16 show the results.
In the figure and the table, the asterisk represents a result having a statistically significant difference compared with the single-drug administration group.

`CS(=O)(=O)CCNCc1ccc(-c2ccc3ncnc(Nc4ccc(OCc5cccc(F)c5)c(Cl)c4)c3c2)o1` [Lapatinib, lapatinib, reference compound] was tested, and the “RTV day 15 Mean ± SD” value [1] was 1.37 ± 0.28 and the “T/C (%)” value [1] was 51%.
With `CC(=O)O[C@H]1C(=O)[C@@]2(C)[C@H]([C@H](OC(=O)c3ccccc3)[C@]3(O)C[C@H](OC(=O)[C@H](O)[C@@H](NC(=O)c4ccccc4)c4ccccc4)C(C)=C1C3(C)C)[C@]1(OC(C)=O)CO[C@@H]1C[C@@H]2O` [paclitaxel, reference compound] the “RTV day 15 Mean ± SD” value [2] was 6.96 ± 1.41, the “T/C (%)” value [2] was 27% and the “RTV day 15 Mean ± SD” value [3] was 1.09 ± 0.40. The “T/C (%)” value [3] was 32%.
With `N.N.O=C([O-])C1(C(=O)[O-])CCC1.[Pt+2]` [Carboplatin, carboplatin, reference compound] the “RTV day 15 Mean ± SD” value [4] was 20.99 ± 4.57 and the “T/C (%)” value [4] was 82%.
In the case of `COc1cccc2c1C(=O)c1c(O)c3c(c(O)c1C2=O)C[C@@](O)(C(=O)CO)C[C@@H]3O[C@H]1C[C@H](N)[C@H](O)[C@H](C)O1` [Doxorubicine, doxorubicin, reference compound], the “T/C (%)” value [5] is reported as 45%.
With `CCc1c2c(nc3ccc(OC(=O)N4CCC(N5CCCCC5)CC4)cc13)-c1cc3c(c(=O)n1C2)COC(=O)[C@]3(O)CC` [irinotecan, reference compound] the “RTV day 15 Mean ± SD” value [6] was 11.92 ± 3.68.
With `CO[C@H]1C[C@@H]2CC[C@@H](C)[C@@](O)(O2)C(=O)C(=O)N2CCCC[C@H]2C(=O)O[C@H]([C@H](C)C[C@@H]2CC[C@@H](OCCO)[C@H](OC)C2)CC(=O)[C@H](C)/C=C(\C)[C@@H](O)[C@@H](OC)C(=O)[C@H](C)C[C@H](C)/C=C/C=C/C=C/1C` [Everolimus, everolimus, reference compound] the “RTV day 15 Mean ± SD” value [7] was 1.32 ± 0.11 and the “T/C (%)” value [7] was 47.3%.
